Test results from BigSolDB 2.1.

O=C(O)c1cccnc1
Settings | solubility (mole fraction)
in DMSO, 293.56 K | 0.0597
in DMSO, 303.38 K | 0.074
in DMSO, 313.07 K | 0.0911
in DMSO, 322.84 K | 0.109
in DMSO, 332.36 K | 0.131
in acetone, 285.46 K | 0.000733
in acetone, 292.26 K | 0.00114
in acetone, 296.8 K | 0.00137
in acetone, 302.14 K | 0.00161
in acetone, 307.1 K | 0.00231
in acetone, 317.11 K | 0.00318
in acetonitrile, 283.3 K | 7.12e-05
in acetonitrile, 288.51 K | 0.00012
in acetonitrile, 293.01 K | 0.00017
in acetonitrile, 297.58 K | 0.000185
in acetonitrile, 302.63 K | 0.000268
in acetonitrile, 306.91 K | 0.000354
in acetonitrile, 312.49 K | 0.000475
in acetonitrile, 316.21 K | 0.000547
in acetonitrile, 322.45 K | 0.000715
in acetonitrile, 332.32 K | 0.00107
in diethyl ether, 283.45 K | 0.000322
in diethyl ether, 285.74 K | 0.000379
in diethyl ether, 290.57 K | 0.000539
in diethyl ether, 294.02 K | 0.000618
in diethyl ether, 298.66 K | 0.000813
in ethanol, 283.38 K | 0.00224
in ethanol, 293.46 K | 0.00309
in ethanol, 303.15 K | 0.00423
in ethanol, 312.83 K | 0.00605
in ethanol, 322.64 K | 0.00843
in ethanol, 332.43 K | 0.0115
in water, 283.59 K | 0.00172
in water, 293.41 K | 0.00218
in water, 303.03 K | 0.00281
in water, 312.49 K | 0.00475
in water, 312.97 K | 0.00365
in water, 316.21 K | 0.00547
in water, 322.45 K | 0.00715
in water, 322.83 K | 0.00465
in water, 332.01 K | 0.00586
in water, 332.32 K | 0.0107
